Counter-ions that a name gives are not always drawn.
System: angiotensin converting enzyme (ACE)
Test: in vivo attenuation of angiotensin I pressor response after oral administration in conscious, normotensive rats
Details: maximum during three-hour period, mean of at least four rats
Method: The compounds of formula I were tested in vivo in conscious, normotensive rats. Angiotensin I given intravenously increases blood pressure due to conversion to angiotensin II via the angiotensin converting enzyme (ACE). ACE inhibition was reflected by the attenuation of an angiotensin I pressor response after compound administration. The in vivo testing procedure is described in greater detail by Rubin et al., "SQ14,225 (D-3-Mercapto-2-Methylpropanoyl-L-Proline), A Novel Orally Active Inhibitor Of Angiotensin I Converting Enzyme", J. Pharm. Exp. Therap., Vol. 204, p 271-280 (1978).
The inhibition of the angiotensin I pressor response is expressed as the percentage of the response to angiotensin I obtained before the test compound was administered, and was measured at regular intervals during a three-hour period following the administration of the test compound. The maximum percentage inhibition observed during this period is given in the table as a number from 0 to 100 percent. All results are the mean values obtained for testing of each compound in at least four rats. For compounds tested at more than one dose, it can be observed that increased amounts of compound administered lead to increased levels of inhibition.

[1] = oral dose 5 (dose unit not given)
[2] = oral dose 1.5 (dose unit not given)
[3] = oral dose 0.5 (dose unit not given)
[4] = oral dose 0.5 (dose unit not given), dilithium salt
[5] = oral dose 1.5 (dose unit not given), dilithium salt
[6] = oral dose 5 (dose unit not given), dilithium salt
[7] = oral dose 15 (dose unit not given)

| Compound | Maximum Percent Inhibition of the angiotensin I pressor response [1] [%] | Maximum Percent Inhibition of the angiotensin I pressor response [2] [%] | Maximum Percent Inhibition of the angiotensin I pressor response [3] [%] | Maximum Percent Inhibition of the angiotensin I pressor response [4] [%] | Maximum Percent Inhibition of the angiotensin I pressor response [5] [%] | Maximum Percent Inhibition of the angiotensin I pressor response [6] [%] | Maximum Percent Inhibition of the angiotensin I pressor response (oral dose 15 (dose unit not given), dilithium salt) [%] | Maximum Percent Inhibition of the angiotensin I pressor response [7] [%] |
| --- | --- | --- | --- | --- | --- | --- | --- | --- |
| CCCCCP(=O)(O)O[C@@H](CCCCN)C(=O)N1CCC[C@H]1C(=O)O [Example 7, 1-[(S)-6-Amino-2-[(hydroxypentylphosphinyl)oxy]-1-oxohexyl]-L-proline] | 57.20 | – | – | – | – | – | – | – |
| NCCCC[C@H](OP(=O)(O)CCCc1ccccc1)C(=O)N1CCC[C@H]1C(=O)O [Example 2, (S)-1-[6-Amino-2-[[hydroxy(3-phenylpropyl)phosphinyl]oxy]-1-oxohexyl]-L-proline] | 66.70 | 32.30 | – | – | – | – | – | – |
| NCCCC[C@H](OP(=O)(O)CCCCc1ccccc1)C(=O)N1CCC[C@H]1C(=O)O [Example 4, (S)-1-[6-Amino-2-[[hydroxy(4-phenylbutyl)phosphinyl]oxy]-1-oxohexyl]-L-proline] | 89.90 | 69.00 | 46.60 | – | – | – | – | – |
| CCCCCCCP(=O)(O)O[C@@H](CCCCN)C(=O)N1CCC[C@H]1C(=O)O [Example 10, 1-[(S)-6-Amino-2-[(heptylhydroxyphosphinyl)oxy]-1-oxohexyl]-L-proline] | 75.00 | 66.00 | 45.00 | – | – | – | – | – |
| NCCCC[C@H](OP(=O)(O)CCc1ccccc1)C(=O)N1CCC[C@H]1C(=O)O [Example 1, (S)-1-[6-Amino-2-[[hydroxy(2-phenylethyl)phosphinyl]oxy]-1-oxohexyl]-L-proline, dilithium salt] | 64.50 | 50.30 | – | – | – | – | – | – |
| NCCCC[C@H](OP(=O)(O)CCCCc1ccc(F)cc1)C(=O)N1CCC[C@H]1C(=O)O [Example 5, (S)-1-[6-Amino-2-[[[4-(4-fluorophenyl)butyl]hydroxyphosphinyl]oxy]-1-oxohexyl]-L-proline] | 80.50 | 69.00 | 22.20 | – | – | – | – | – |
| CCCCCCP(=O)(O)O[C@@H](CCCCN)C(=O)N1CCC[C@H]1C(=O)O [Example 8, (S)-1-[6-Amino-2-[(hexylhydroxyphosphinyl)oxy]-1-oxohexyl]-L-proline, dilithium salt] | – | – | – | 19.70 | 72.40 | 82.70 | 85.50 | – |
| NCCCC[C@H](OP(=O)(O)CCCCCc1ccccc1)C(=O)N1CCC[C@H]1C(=O)O [Example 6, (S)-1-[6-Amino-2-[[hydroxy(5-phenylpentyl)phosphinyl]oxy]-1-oxohexyl]-L-proline] | 64.70 | – | – | – | – | – | – | – |
| NCCCC[C@H](OP(=O)(O)CCCCc1ccccc1)C(=O)N1CCC[C@H]1C(=O)O [Example 3, (S)-1-[6-Amino-2-[[hydroxy(4-phenylbutyl)phosphinyl]oxy]-1-oxohexyl]-L-proline, dilithium salt] | – | – | – | 20.90 | 74.00 | 91.00 | – | 97.10 |
| CCCCCCP(=O)(O)O[C@@H](CCCCN)C(=O)N1CCC[C@H]1C(=O)O [Example 9, (S)-1-[6-Amino-2-[(hexylhydroxyphosphinyl)oxy]-1-oxohexyl]-L-proline] | 82.10 | 66.50 | 17.90 | – | – | – | – | 90.30 |
| CCCCCCCCP(=O)(O)O[C@@H](CCCCN)C(=O)N1CCC[C@H]1C(=O)O [Example 12, (S)-1-[6-Amino-2-[(octylhydroxyphosphinyl)oxy]-1-oxohexyl]-L-proline, dilithium salt] | 82.60 | 51.10 | 16.80 | – | – | – | – | 93.60 |

From patent US4745196A, “Orally active phosphonyl hydroxyacyl prolines” (E. R. Squibb & Sons, Inc., priority 1986, dated 1988)
